Test results from article PMC4907692, “Engineering vanilloid-sensitivity into the rat TRPV2 channel” (eLife, 2016).

Experiments:
TRPV1 S512F/M547L = target: T1, TRPV1 S512F/M547L (Rattus norvegicus, UniProt O35433, M547L/S512F); assay: Two-electrode voltage-clamp in Xenopus oocytes, TRPV1 S512F/M547L; type: cell-based; conditions: 100 nM RTx
T1 construct: expressed in transfected cells; host or cells: Xenopus oocytes (cRNA injection)
Excerpt: (§1) To further investigate the putative vanilloid binding pocket in TRPV1, we inspected the cryo-EM structure of TRPV1, looking for residues that are located nearby to the putative RTx density (Figure 1B; regions/residues highlighted in yellow) and that differ between TRPV1 and TRPV2 channels (Figure 3—figure supplement 1; regions highlighted in magenta). […] To quantify the contribution of each of these residues to TRPV1 channel activation by RTx under our experimental conditions, we mutated each to the corresponding residue in TRPV2. We then expressed each construct in oocytes and used the two electrode voltage-clamp technique to study activation by RTx and by the non-specific TRPV channel activator 2-APB. We recorded time courses for channel activation by each agonist while stepping the membrane potential from −60 to +60 mV every 3 s from a holding potential of 0 mV using an external recording solution containing 100 mM KCl (internal K^+ concentration in a healthy oocyte is 100 mM) (Figure 3A, left). We also recorded current-voltage (I-V) relations by stepping over a wider range of voltages in the absence and presence of activators, or in the presence of ruthenium red (RR), a non-specific inhibitor of TRP channels (Figure 3A, right). […]

TRPV2 QM = target: T2, TRPV2 QM (Rattus norvegicus, UniProt Q9WUD2, F472S/L507M/L510T/Q530E); assay: Two-electrode voltage-clamp in Xenopus oocytes, TRPV2 QM; type: cell-based; conditions: 100 nM RTx
T2 construct: expressed in transfected cells; host or cells: Xenopus oocytes (cRNA injection)
T2 sequence (Q9WUD2 1-761 F472S/L507M/L510T/Q530E): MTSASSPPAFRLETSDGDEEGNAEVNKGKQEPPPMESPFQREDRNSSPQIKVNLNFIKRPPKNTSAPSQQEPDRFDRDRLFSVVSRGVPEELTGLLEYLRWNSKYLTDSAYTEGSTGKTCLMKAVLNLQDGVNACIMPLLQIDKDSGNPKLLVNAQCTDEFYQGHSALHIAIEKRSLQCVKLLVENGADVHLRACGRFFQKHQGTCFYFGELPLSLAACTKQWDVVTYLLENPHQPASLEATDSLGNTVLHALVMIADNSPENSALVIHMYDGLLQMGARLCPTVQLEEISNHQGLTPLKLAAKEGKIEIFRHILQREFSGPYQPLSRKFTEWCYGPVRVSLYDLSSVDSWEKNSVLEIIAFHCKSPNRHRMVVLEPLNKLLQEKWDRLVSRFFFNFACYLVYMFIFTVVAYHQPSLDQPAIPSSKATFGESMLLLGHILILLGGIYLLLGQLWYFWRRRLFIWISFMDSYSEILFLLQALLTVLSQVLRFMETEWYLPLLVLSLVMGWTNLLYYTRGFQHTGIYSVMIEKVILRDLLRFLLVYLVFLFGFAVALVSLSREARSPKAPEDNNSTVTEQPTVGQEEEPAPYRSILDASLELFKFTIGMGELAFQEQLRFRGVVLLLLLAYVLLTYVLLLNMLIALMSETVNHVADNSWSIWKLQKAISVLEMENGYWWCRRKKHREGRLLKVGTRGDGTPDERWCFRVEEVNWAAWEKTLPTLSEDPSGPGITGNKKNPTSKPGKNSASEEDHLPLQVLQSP
Excerpt: as §1

T1 sequence (O35433 whole entry S512F/M547L): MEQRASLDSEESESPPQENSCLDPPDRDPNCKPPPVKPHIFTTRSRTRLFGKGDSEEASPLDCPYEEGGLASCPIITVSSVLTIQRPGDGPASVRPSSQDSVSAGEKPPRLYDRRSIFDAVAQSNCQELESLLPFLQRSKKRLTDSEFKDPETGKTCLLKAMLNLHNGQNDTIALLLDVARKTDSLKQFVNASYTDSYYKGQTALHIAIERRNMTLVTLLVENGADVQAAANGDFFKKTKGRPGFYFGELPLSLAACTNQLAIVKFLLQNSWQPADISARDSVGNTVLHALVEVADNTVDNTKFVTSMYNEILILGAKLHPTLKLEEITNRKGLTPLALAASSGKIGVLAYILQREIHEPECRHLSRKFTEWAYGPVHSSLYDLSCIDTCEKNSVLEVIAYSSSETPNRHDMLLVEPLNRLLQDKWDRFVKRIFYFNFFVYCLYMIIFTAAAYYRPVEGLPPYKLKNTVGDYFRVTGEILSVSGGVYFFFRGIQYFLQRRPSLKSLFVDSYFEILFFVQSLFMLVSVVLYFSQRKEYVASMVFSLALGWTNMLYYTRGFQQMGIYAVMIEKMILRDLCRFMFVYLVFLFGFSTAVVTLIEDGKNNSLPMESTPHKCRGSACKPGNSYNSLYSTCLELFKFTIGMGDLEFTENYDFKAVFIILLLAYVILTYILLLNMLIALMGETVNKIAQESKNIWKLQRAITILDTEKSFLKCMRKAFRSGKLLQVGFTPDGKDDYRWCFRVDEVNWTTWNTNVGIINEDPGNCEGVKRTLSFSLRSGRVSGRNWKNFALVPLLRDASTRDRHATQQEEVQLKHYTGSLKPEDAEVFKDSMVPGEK

## C=C(C)[C@]12C[C@@H](C)[C@@]34O[C@](Cc5ccccc5)(O[C@@H]1[C@@H]3C=C(COC(=O)Cc1ccc(O)c(OC)c1)C[C@]1(O)C(=O)C(C)=C[C@@H]41)O2 [RTx, resiniferatoxin]
TRPV1 S512F/M547L
  channel activation by RTx: lost sensitivity
TRPV2 QM
  channel activation by RTx: robustly activated
